Like-named read-outs stand apart in the source and are kept apart here. Where a SMILES comes first, the peptide text is derived from it. [ ]: non-standard residue; d: D form. The star is where a group is joined. Gly(N-(2R-Ph-propyl)) = C[C@@H](CNCC(=O)O)c1ccccc1; Piperidin1yl(4-NH2,4-COOH) = NC1(C(=O)O)CCN(*)CC1
Tests used:
[1] = type: physicochemical; details: for Stability (conclusion in words): illumination and high temperature
Method: Samples of the compound represented by formula (I) and acetate, hydrochloride, citrate and phosphate of the compound represented by formula (I) were respectively placed open and evenly spread, so that the stability of the samples were investigated under the conditions of room temperature, heating (40° C., 60° C.), illumination (4500Lux) and high humidity (RH75% and RH90%). The sampling period is 20 days.

[2] = type: physicochemical
Method: Samples of acetate, hydrochloride, citrate and phosphate of the compound represented by formula (I) were subjected to a long-term accelerated stability investigation for 6 months under dark and sealed conditions (the inner package is a medicinal low-density polyethylene composite film and the outer package is aluminum foil), humidity (60% RH), temperature (4° C., 25° C.) and with/without nitrogen protection.

[3] = Canine pharmacokinetic test, intravenous administration; type: in vivo; details: Beagle dogs
From the text: Beagle dogs were used as test animals, and LC/MS/MS methods were used to determine the drug concentration in plasma of Beagle dogs at different time points after intravenous administration of the compound represented by formula (I). To study the pharmacokinetic behavior of the compound of the present invention in Beagle dogs and evaluate its pharmacokinetic characteristics.
3 male beagle dogs provided by Medicilon Pharmaceutical Technology (Shanghai) Co, Ltd in each group.
A proper amount of sample was weighted and 100% normal saline was added for dissolution.
Beagle dogs 3, male, for one group; intravenous administration with a volume of 2 ml/kg after fasting for one night.
For the intravenous administration group, 1.0 ml of blood was collected from jugular vein before and 5 mins, 15 mins, 0.5, 1.0, 2.0, 4.0, 8.0, 12.0, 24.0 hrs after administration, then placed in a heparinized test tube, centrifuged at 3500 rpm for 10 mins to separate plasma, and stored at −80° C.
LC/MS/MS method was used to determine the content of compound in Beagle dog plasma after intravenous administration.

[4] = test system: inflammatory pain induced by carrageenan in rats; assay: Carrageenan inflammatory pain model, plantar tenderness (Electronic Von Frey); type: in vivo, Wistar rats; details: for tenderness threshold: 30 min before test, model group 7.6 g
Method: Male Wistar rats for experiment purchased from Shanghai Slack Experimental Animal Co, Ltd. (Shanghai, China, certificate No. 2015000513408, license SOCK (Shanghai) 2012-0002, 150-180 g at the time of purchase, 5 rats/cage, 12/12 hour light/dark cycle adjustment, constant temperature of 23±1° C., humidity of 50-60%, free intake of water. After the animals were purchased, they were reared for more than 7 days to start the experiment.
1% λ-carrageenan mixed with physiological saline and stirred overnight, forming a jelly suspension.
The experimental method was improved according to the method in document 1 (Kazunari Nakao et al.). Before the inflammatory pain experiment, rats were randomly divided into the following groups according to body weight: blank control group, model group, 0.1 mg/kg group and 0.3 mg/kg group. There were 8 rats in each group. Inflammatory pain model was established by subcutaneous injection of 1% carrageenan (100 μl) into the foot pad of Wistar rats. After 4 hours, the rats were tested for plantar tenderness to evaluate their mechanical pain threshold, the rats were administrated single caudal vein administration (1 ml/kg) 30 min before the test, and the control group and model group were given the corresponding solvents.
Electronic Von Frey: UGO BASILE, type 38450.
The experimental data were expressed by Mean±standard deviation (S.D.). Statistical comparison was carried out with Excel software T test.

[5] = Solubility (salt formation research); type: physicochemical
[6] = 25° C., 60% RH, nitrogen protection, 1 month
[7] = 25° C., 60% RH, nitrogen protection, 3 months
[8] = 25° C., 60% RH, nitrogen protection, 6 months
[9] = 25° C., 60% RH, nitrogen protection, initial

Row | Compound | Purity % ([1]; 4500 Lux, 0 days (initial)) [%] | Purity % ([1]; 4500 Lux, 5 days) [%] | Purity % ([1]; 4500 Lux, 10 days) [%] | Purity % ([1]; 4500 Lux, 20 days) [%] | Purity % ([2]; 4° C., 1 month) [%] | Purity % ([2]; 4° C., 3 months) [%] | Purity % ([2]; 4° C., 6 months) [%] | Purity % ([2]; 4° C., initial) [%] | Purity % [2, 6] [%] | Purity % [2, 7] [%] | Purity % [2, 8] [%] | Purity % [2, 9] [%] | Purity % ([2]; 25° C., 60% Rh, 1 month) [%] | Purity % ([2]; 25° C., 60% Rh, 3 months) [%] | Purity % ([2]; 25° C., 60% Rh, 6 months) [%] | Purity % ([2]; 25° C., 60% Rh, initial) [%] | other results
1 | CC(C)C[C@@H](NC(=O)[C@@H](Cc1ccccc1)NC(=O)CNC[C@H](C)c1ccccc1)C(=O)N[C@H](CCCCN)C(=O)N1CCC(N)(C(=O)O)CC1 [Embodiment 9, 4-amino-1-((2R,5R,8R,14R)-2-(4-aminobutyl)-8-benzyl-5-isobutyl-4,7,10-trioxo-14-phenyl-3,6,9,12-tetraazapentadecan-1-acyl)piperidine-4-carboxylic acid] (H-[Gly(N-(2R-Ph-propyl))][dF][dL][dK]-{Piperidin1yl(4-NH2,4-COOH)}) | 96.50 | 95.57 | 94.27 | 94.24 | 99.51 | 99.51 | 98.57 | 99.54 | 99.52 | 99.50 | 98.54 | 99.54 | 99.46 | 99.51 | 99.51 | 99.54 | Aspect ([2]; 4° C., 1 month): White; Aspect ([2]; 4° C., 3 months): White; Aspect ([2]; 4° C., 6 months): White; Aspect ([2]; 4° C., initial): White
2 | CC(C)C[C@@H](NC(=O)[C@@H](Cc1ccccc1)NC(=O)CNC[C@H](C)c1ccccc1)C(=O)N[C@H](CCCCN)C(=O)N1CCC(N)(C(=O)O)CC1 [Embodiment 15, 4-amino-1-((2R,5R,8R,14R)-2-(4-aminobutyl)-8-benzyl-5-isobutyl-4,7,10-trioxo-14-phenyl-3,6,9,12-tetraazapentadecan-1-acyl)piperidine-4-carboxylic acid] (H-[Gly(N-(2R-Ph-propyl))][dF][dL][dK]-{Piperidin1yl(4-NH2,4-COOH)}) | 96.32 | 96.07 | 95.62 | 95.76 | 99.63 | 99.62 | 99.66 | 99.64 | 9.65 | 99.62 | 99.63 | 99.64 | 99.64 | 99.63 | 99.64 | 99.64 | 
3 | CC(C)C[C@@H](NC(=O)[C@@H](Cc1ccccc1)NC(=O)CNC[C@H](C)c1ccccc1)C(=O)N[C@H](CCCCN)C(=O)N1CCC(N)(C(=O)O)CC1 [Embodiment 20, 4-amino-1-((2R,5R,8R,14R)-2-(4-aminobutyl)-8-benzyl-5-isobutyl-4,7,10-trioxo-14-phenyl-3,6,9,12-tetraazapentadecan-1-acyl)piperidine-4-carboxylic acid] (H-[Gly(N-(2R-Ph-propyl))][dF][dL][dK]-{Piperidin1yl(4-NH2,4-COOH)}) | 99.68 | 97.76 | 97.72 | 97.15 |  |  |  |  |  |  |  |  |  |  |  |  | Purity % ([1]; 40° C., 5 days): 97.60%; Stability (conclusion in words) ([1]; 20 days, listed as free state): degraded greatly; pharmacokinetic properties (in words) [3]: good; increase range of tenderness threshold compared with the model group ([4]; 0.1 mg/kg i.v.): 79.5%; tenderness threshold ([4]; 0.1 mg/kg i.v. single): 13.7 g; increase range of tenderness threshold compared with the model group ([4]; 0.3 mg/kg i.v.): 204.5%; tenderness threshold ([4]; 0.3 mg/kg i.v. single): 23.2 g; solubility (in words) [5]: low
4 | CC(C)C[C@@H](NC(=O)[C@@H](Cc1ccccc1)NC(=O)CNC[C@H](C)c1ccccc1)C(=O)N[C@H](CCCCN)C(=O)N1CCC(N)(C(=O)O)CC1 [Phosphate (1:3)] (H-[Gly(N-(2R-Ph-propyl))][dF][dL][dK]-{Piperidin1yl(4-NH2,4-COOH)}) |  |  |  |  |  |  |  |  |  |  |  |  |  |  |  |  | Stability (conclusion in words) ([1]; 20 days): relatively stable or slightly degraded; Long-term stability (conclusion in words) ([2]; 6 months, 4° C., 25° C., 60% RH, with/without nitrogen protection, amorphous samples): stable
